Patent publication US6610681B1, “Neurotherapeutic clavulanate composition and method” (Revaax Pharmaceuticals, LLC, priority 1999, dated 2003)

System: rats
Experiment: Morris water maze, cue navigation
Type: in vivo, rat
Protocol: On the day following the last day (Day 4) of spatial navigation, animals were tested for cue navigation. In these tests, the platform was raised above water level. One hr before testing animals were treated with CLAV or saline vehicle. The same animals treated with CLAV during spatial navigation were treated with CLAV for cue navigation. Animals were run through a series of two min trials with 45 min between trials. At each trial, the platform was moved to a different quadrant. The cue navigation study was identical to the spatial navigation except the platform was visible and the testing was done over five consecutive trials done on a single day. Animals were scored for latency to find the platform, percent time spent in each quadrant, path distance and swim speed for all testing periods.

O=C(O)[C@H]1/C(=C/CO)O[C@@H]2CC(=O)N21 [CLAV, clavulanic acid]
percentage of time spent in each quadrant vs vehicle (any quadrant on any trial): no significant difference between treatments
latency to find the platform (visible platform, five trials): no main effect for treatments
distance traveled to find the platform (vs vehicle): not significantly different
